Organism: Rattus norvegicus
Test: DrugMatrix - Regimen: Daily Repeat
Format: toxicity, organism-based, Sprague-Dawley
Set-up: regimen Daily Repeat, gender Male, age 6-8 weeks
Settings: in vivo, po, 10 mg/kg, route oral GAVAGE, dose level Low, […]; for ABSOLUTE BASOPHIL / ABSOLUTE EOSINOPHIL / ABSOLUTE LYMPHOCYTE / ABSOLUTE MONOCYTE / ABSOLUTE SEGMENTED NEUTROPHIL / BASOPHIL / EOSINOPHIL / ERYTHROCYTE COUNT / HEMATOCRIT / HEMOGLOBIN / LEUKOCYTE COUNT / LYMPHOCYTE / MEAN CORPUSCULAR HEMOGLOBIN / MEAN CORPUSCULAR HEMOGLOBIN CONCENTRATION / MEAN CORPUSCULAR VOLUME / MONOCYTE / NEUTROPHIL / NUCLEATED RED BLOOD CELLS / PLATELET COUNT: tissue Blood; for ALANINE AMINOTRANSFERASE / ALBUMIN / ALKALINE PHOSPHATASE / ASPARTATE AMINOTRANSFERASE / BLOOD UREA NITROGEN / CARBON DIOXIDE / CHLORIDE / CHOLESTEROL / CREATINE PHOSPHOKINASE / CREATININE / GLUCOSE / LACTATE DEHYDROGENASE / LIPASE / PHOSPHORUS / POTASSIUM / SODIUM / TOTAL BILIRUBIN / TOTAL PROTEIN / URIC ACID: tissue Plasma

Compound: C#C[C@]1(O)CC[C@H]2[C@@H]3CCc4cc(O)ccc4[C@H]3CC[C@@]21C [ETHINYL ESTRADIOL]
- ABSOLUTE BASOPHIL (72 h, time 3 day): 0 CELLS/uL
- ABSOLUTE EOSINOPHIL (72 h, time 3 day): 112 CELLS/uL
- ABSOLUTE LYMPHOCYTE (72 h, time 3 day): 12658 CELLS/uL
- ABSOLUTE MONOCYTE (72 h, time 3 day): 346 CELLS/uL
- ABSOLUTE SEGMENTED NEUTROPHIL (72 h, time 3 day): 1350.67 CELLS/uL
- BASOPHIL (72 h, time 3 day): 0%
- EOSINOPHIL (72 h, time 3 day): 1%
- ERYTHROCYTE COUNT (72 h, time 3 day): 5.67 x10E6/uL
- HEMATOCRIT (72 h, time 3 day): 36.5%
- HEMOGLOBIN (72 h, time 3 day): 13.83 G/DL
- LEUKOCYTE COUNT (72 h, time 3 day): 14.47 x10E3/uL
- LYMPHOCYTE (72 h, time 3 day): 87.33%
- MEAN CORPUSCULAR HEMOGLOBIN (72 h, time 3 day): 24.43 pg
- MEAN CORPUSCULAR HEMOGLOBIN CONCENTRATION (72 h, time 3 day): 37.9 G/DL
- MEAN CORPUSCULAR VOLUME (72 h, time 3 day): 64.47 fL
- MONOCYTE (72 h, time 3 day): 2.33%
- NEUTROPHIL (72 h, time 3 day): 9.33%
- NUCLEATED RED BLOOD CELLS (72 h, time 3 day): 0 /100WBC
- PLATELET COUNT (72 h, time 3 day): 1151 x10E3/uL
- ALANINE AMINOTRANSFERASE (72 h, time 3 day): 33.67 u/L
- ALBUMIN (72 h, time 3 day): 3.67 G/DL
- ALKALINE PHOSPHATASE (72 h, time 3 day): 715.33 u/L
- ASPARTATE AMINOTRANSFERASE (72 h, time 3 day): 58.67 u/L
- BLOOD UREA NITROGEN (72 h, time 3 day): 12 mg/dL
- CARBON DIOXIDE (72 h, time 3 day): 22 mmol/L
- CHLORIDE (72 h, time 3 day): 103.33 MEQ/L
- CHOLESTEROL (72 h, time 3 day): 20 mg/dL
- CREATINE PHOSPHOKINASE (72 h, time 3 day): 384.33 u/L
- CREATININE (72 h, time 3 day): 0.1 mg/dL
- GLUCOSE (72 h, time 3 day): 148.33 mg/dL
- LACTATE DEHYDROGENASE (72 h, time 3 day): 168.67 u/L
- LIPASE (72 h, time 3 day): 8 u/L
- PHOSPHORUS (72 h, time 3 day): 10.77 mg/dL
- POTASSIUM (72 h, time 3 day): 6.1 MEQ/L
- SODIUM (72 h, time 3 day): 141.07 MEQ/L
- TOTAL BILIRUBIN (72 h, time 3 day): 0.13 mg/dL
- TOTAL PROTEIN (72 h, time 3 day): 5.3 G/DL
- URIC ACID (72 h, time 3 day): 1.13 mg/dL
- ABSOLUTE BASOPHIL (120 h, time 5 day): 0 CELLS/uL
- ABSOLUTE EOSINOPHIL (120 h, time 5 day): 138 CELLS/uL
- ABSOLUTE LYMPHOCYTE (120 h, time 5 day): 9196.33 CELLS/uL
- ABSOLUTE MONOCYTE (120 h, time 5 day): 408.33 CELLS/uL
- ABSOLUTE SEGMENTED NEUTROPHIL (120 h, time 5 day): 1390.67 CELLS/uL
- BASOPHIL (120 h, time 5 day): 0%
- EOSINOPHIL (120 h, time 5 day): 1%
- ERYTHROCYTE COUNT (120 h, time 5 day): 5.71 x10E6/uL
- HEMATOCRIT (120 h, time 5 day): 34.9%
- HEMOGLOBIN (120 h, time 5 day): 13.2 G/DL
- LEUKOCYTE COUNT (120 h, time 5 day): 11.13 x10E3/uL
- LYMPHOCYTE (120 h, time 5 day): 83%
- MEAN CORPUSCULAR HEMOGLOBIN (120 h, time 5 day): 23.1 pg
- MEAN CORPUSCULAR HEMOGLOBIN CONCENTRATION (120 h, time 5 day): 37.83 G/DL
- MEAN CORPUSCULAR VOLUME (120 h, time 5 day): 61.17 fL
- MONOCYTE (120 h, time 5 day): 3.67%
- NEUTROPHIL (120 h, time 5 day): 12.33%
- NUCLEATED RED BLOOD CELLS (120 h, time 5 day): 0 /100WBC
- PLATELET COUNT (120 h, time 5 day): 1450 x10E3/uL
- ALANINE AMINOTRANSFERASE (120 h, time 5 day): 54.67 u/L
- ALBUMIN (120 h, time 5 day): 3.87 G/DL
- ALKALINE PHOSPHATASE (120 h, time 5 day): 644.33 u/L
- ASPARTATE AMINOTRANSFERASE (120 h, time 5 day): 72.67 u/L
- BLOOD UREA NITROGEN (120 h, time 5 day): 8.33 mg/dL
- CARBON DIOXIDE (120 h, time 5 day): 22.33 mmol/L
- CHLORIDE (120 h, time 5 day): 101.33 MEQ/L
- CHOLESTEROL (120 h, time 5 day): 17.33 mg/dL
- CREATINE PHOSPHOKINASE (120 h, time 5 day): 692.67 u/L
- CREATININE (120 h, time 5 day): 0.12 mg/dL
- GLUCOSE (120 h, time 5 day): 153.33 mg/dL
- LACTATE DEHYDROGENASE (120 h, time 5 day): 158 u/L
- LIPASE (120 h, time 5 day): 4.33 u/L
- PHOSPHORUS (120 h, time 5 day): 10.27 mg/dL
- POTASSIUM (120 h, time 5 day): 5.78 MEQ/L
- SODIUM (120 h, time 5 day): 139.87 MEQ/L
- TOTAL BILIRUBIN (120 h, time 5 day): 0.23 mg/dL
- TOTAL PROTEIN (120 h, time 5 day): 6.07 G/DL
- URIC ACID (120 h, time 5 day): 1.63 mg/dL

— ChEMBL document CHEMBL3885881, “DrugMatrix”
